Assay results reported in PubChem BioAssay (NCI).
“And” between values parts separate entries of the source, which are not always exact repeats. Identical values can stand only once.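 Interpolation was linear, between the two tested concentrations surrounding the appropriate level; five concentrations were tested over 48 hours in 96-well plates. The concentration for 50% growth inhibition is given as GI50. TGI is the concentration that stops growth completely.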

How the values were obtained:
Assay in all cases: NCI anticancer screen, dose series, 48 h
DU-145 prostate = test system: DU-145 prostate
SF-539 CNS = test system: SF-539 CNS
NCI-H460 lung = test system: NCI-H460 lung
HOP-92 NSCLC = test system: HOP-92 NSCLC
SNB-19 CNS = test system: SNB-19 CNS
RXF 393 renal = test system: RXF 393 renal
OVCAR-5 ovarian = test system: OVCAR-5 ovarian
MCF7 breast = test system: MCF7 breast
SK-OV-3 ovarian = test system: SK-OV-3 ovarian
SR leukemia = test system: SR leukemia

SMILES	GI50 (DU-145 prostate)	TGI (DU-145 prostate) [µM]	GI50 (SF-539 CNS)	TGI (SF-539 CNS) [µM]	GI50 (NCI-H460 lung)	TGI (NCI-H460 lung) [µM]	GI50 (HOP-92 NSCLC)	TGI (HOP-92 NSCLC) [µM]	GI50 (SNB-19 CNS)	TGI (SNB-19 CNS) [µM]	GI50 (RXF 393 renal) [nM]	TGI (RXF 393 renal) [µM]	GI50 (OVCAR-5 ovarian)	TGI (OVCAR-5 ovarian) [µM]	GI50 (MCF7 breast)	TGI (MCF7 breast) [µM]	GI50 (SK-OV-3 ovarian)	TGI (SK-OV-3 ovarian) [µM]	GI50 (SR leukemia)	TGI (SR leukemia)
Oc1c(C(Nc2ccccn2)c2cccc(Oc3ccccc3)c2)ccc2cccnc12 (centres undefined)	774 nM	16.2	372 nM	3.56	365 nM	10.5	522 nM	23.7	366 nM	14.7	1320	22.1	515 nM	12.6	416 nM	13.9	836 nM	15.6	508 nM	> 100 µM
O=C(c1ccccc1)C(Cl)C(Cl)c1ccccc1 (centres undefined)	2890 nM	10.2	3010 nM	10.2	6660 nM	22.5	2310 nM	6.99	6850 nM	21.2	1720	3.52	5480 nM	20.9	1000 nM	10.3	16800 nM	30.5	381 nM	7.65 µM
O=C(/C=C/C12c3ccccc3C(c3ccccc31)C1C(=O)N(c3ccc(Cl)cc3)C(=O)C12)c1ccccn1 (centres undefined)	283 nM	0.747	258 nM	0.676	232 nM	0.568	452 nM	1.11	426 nM	2	187	0.448	309 nM	1.14	313 nM	> 23	1980 nM	> 100	241 nM	> 100 µM
N#CC(C#N)=NNc1ccc2cn[nH]c2c1	–	82.9	–	> 100	–	> 100	–	> 100	–	> 100	–	55.4	–	> 100	–	> 100	–	> 100	–	55.5 µM
O=C(CCCn1c2c(sc3ccccc32)c(=O)n2nnc(-c3ccccc3)c12)NCCc1cnc[nH]1	833 nM	2.2	< 14.4 nM	0.111	1700 nM	3.11	6160 nM	33	2970 nM	14.7	2560	5.25	75.1 nM	1.51	1100 nM	2.43	2000 nM	6.04	356 nM	5.61 µM
O=C1Nc2ccccc2/C1=C\c1c(-c2ccccc2)nc2sccn12	7310 nM	31.1	–	> 34.4	3150 nM	43.9	2140 nM	7.87	3530 nM	> 43.7	3350	26.6	2700 nM	11.9	2950 nM	22.7	2910 nM	12.7	309 nM	0.976 µM
O=C(Cn1c(C(=O)c2ccc(Cl)cc2)nc(-c2ccc(Cl)cc2)c1-c1ccc(Cl)cc1)c1ccccc1	> 100000 nM	> 100	> 100000 nM	> 100	> 100000 nM	> 100	12900 nM	> 100	> 100000 nM	> 100	> 100000	> 100	> 100000 nM	> 100	> 100000 nM	> 100	> 100000 nM	> 100	> 100000 nM	> 100 µM
Cc1ccc([Se](=C(C(=O)c2ccccc2)C(=O)c2ccccc2)c2ccc(C)cc2)cc1	–	> 100	–	66	–	> 100	–	53.4	–	> 100	–	> 100	–	> 100	–	> 100	–	> 100	–	33.2 µM
O=[N+]([O-])c1ccc(/C=C/c2nc3ccc(Cl)cc3[nH]2)cc1	19400 nM	66.6	15900 nM	39.4	17800 nM	84.9	–	–	> 100000 nM	> 100	71700	> 100	> 100000 nM	> 100	21500 nM	> 100	> 100000 nM	> 100	4950 nM	> 100 µM
O=C1/C(=C/c2ccc([N+](=O)[O-])s2)Oc2cc(Cl)ccc21	3810 nM	> 100	–	–	1840 nM	> 100	631 nM	2.53	1720 nM	4.52	1040	2.63	–	–	944 nM	> 100	23500 nM	> 100	303 nM	1.24 µM
CC(=O)OCC12CN(C#N)C3C4COC(CC41)C1(C(=O)N(C)c4ccccc41)C32 (centres undefined)	–	37.7	–	–	–	94.5	–	52.4	–	–	–	38.3	–	> 100	–	41.4	–	> 100	–	68.3 µM
Oc1cc(N2CC2)c(O)cc1N1CC1	254 nM	1.37	389 nM	2.38	210 nM	5.15	2330 nM	7.9	1780 nM	13.5	358	1.21	1880 nM	9.93	387 nM	4.21	1540 nM	8.77	159 nM	4.03 µM
COc1ccc2c(c1)CC[C@@H]1C2CC[C@]2(C)C(=O)N(CCN(C)C)C(=O)CC12 (some centres undefined)	–	> 100	–	> 100	–	> 100	–	> 100	–	> 100	–	> 100	–	> 100	–	> 100	–	> 100	–	> 100 µM
CN1CCN(Cc2ccc(NC(=O)c3cncc(C#Cc4c(N)ncc5ccc(C#N)cc45)c3)cc2C(F)(F)F)CC1	829 nM	1.59	760 nM	3.07	878 nM	1.77	412 nM	6.35	952 nM	1.79	1080	2.88	813 nM	1.61	694 nM	1.59	8270 nM	17.5	547 nM	2.57 µM
N#Cc1c(NCc2ccccc2)nc(NCc2ccccc2)c(C#N)c1-c1ccc(Cl)cc1	> 50000 nM and 52800 nM	> 100	> 50000 nM and 29000 nM	> 100	> 50000 nM and 34400 nM	> 100	> 50000 nM	> 50	> 50000 nM and 40900 nM	> 100	65500	> 100	> 50000 nM and 77300 nM	> 100	> 50000 nM and 66800 nM	> 100	> 100000 nM	> 100	> 50000 nM and 19700 nM	> 50 µM and 58.5 µM
CC(C)NC(=O)OCc1c(COC(=O)NC(C)C)c(-c2ccc[n+](COC(=O)Cc3ccccc3)c2)n2c1CCC2	–	67.7	–	> 100	–	> 100	–	46.2	–	> 100	–	67.3	–	> 100	–	> 100	–	> 100	–	> 100 µM
COc1ccc2nc3c([N+](=O)[O-])ccc(NCCN(C)C)c3c(N)c2c1	–	3.17	–	3.05	–	2.95	–	2.54	–	3.98	–	3.36	–	3.09	–	1.1	–	3.13	–	2.9 µM
CC(c1cc(Cl)ccc1O)c1cc(Cl)ccc1O	5200 nM	16.3	3520 nM	12.9	2260 nM	4.88	1710 nM	5.35	8130 nM	22.4	3420	9.7	11100 nM	26.7	3190 nM	16.5	13400 nM	26.4	2590 nM	9.95 µM
O=C(O)CCCCn1ccc(=O)[nH]c1=O	–	> 100	–	> 100	–	> 100	–	–	–	> 100	–	> 100	–	> 100	–	> 100	–	> 100	–	> 100 µM
CC1=C/C=C/C(=O)O[C@@H]([C@H](C)[C@H](O)[C@@H](C)NC(=O)C(C)C)[C@H](C)/C=C/C(C)=C/[C@H]2C=CCC[C@@]2(C)\C=C\1	4640 nM and 652 nM	8.98	58.6 nM and 58.8 nM	5.3	526 nM and 287 nM	26.4	59 nM and 54.5 nM	6.5	2010 nM and 736 nM	25.9	–	8.69	8430 nM and 5430 nM	14.3	74.6 nM and 38.2 nM	23.7	3090 nM and 872 nM	> 42.3	410 nM and 191 nM	5.58 µM
CC1CCCC(C(=O)CC2CC(=O)NC(=O)C2)C1=O (centres undefined)	–	> 100	–	> 100	–	> 100	–	> 100	–	> 100	–	> 100	–	> 100	–	> 100	–	> 100	–	> 100 µM
CCCCCCC1N=C(N)N=C(N)N1c1cccc(Cl)c1 (centres undefined)	587 nM	18	84.6 nM	5.76	87.3 nM	12.7	491 nM	5.94	255 nM	8.58	3440	15.7	794 nM	23.1	368 nM	12.7	1220 nM	20.9	748 nM	> 42.7 µM
Cc1cc(Cl)nc2ccc(Cc3ccc4nc(Cl)cc(C)c4c3)cc12	–	> 100	–	32	–	> 100	–	> 100	–	> 100	–	27.6	–	> 100	–	91.5	–	47.1	–	> 100 µM
CNC(=O)c1nn(C)c2c1C(C)(C)Cc1cnc(Nc3cccc(N4CCN(C)CC4)c3)nc1-2	686 nM	14	406 nM	3.06	303 nM	11.8	164 nM	1.8	322 nM	28.7	147	1.38	372 nM	> 100	304 nM	15.5	210 nM	7.44	286 nM	7.88 µM
C/C(=N\NC(=S)N1CCN(c2ccccn2)CC1)c1ccccn1	–	14.1	27.2 nM	8.02	10.2 nM	12.9	2.95 nM	13	183 nM	15	–	13.4	159 nM	13.4	–	11.4	198 nM	16.2	16.7 nM	2.06 µM
NC(=O)c1cccc2c(N[C@H](CN3CCC3)c3ccc(Cl)c(C(F)(F)F)c3)ncnc12	2240 nM	16.2	154 nM	1.71	739 nM	12.4	140 nM	2.27	1190 nM	11.4	141	1.4	1770 nM	13.5	396 nM	3.75	493 nM	4.3	1350 nM	6.58 µM
CS(=O)(=O)N1CCC(n2c(=O)c(Oc3ccc(F)cc3F)cc3cnc(NC4CCOCC4)nc32)CC1	> 25000 nM	> 25	> 25000 nM	> 25	> 25000 nM	> 25	> 25000 nM	> 25	> 25000 nM	> 25	6880	> 25	> 25000 nM	> 25	> 25000 nM	> 25	> 17500 nM	> 25	> 25000 nM	> 25 µM
COc1cc(OC)cc(Oc2cnc3cc(N)cc(N)c3n2)c1	17600 nM	38.5	21300 nM	43.7	19400 nM	41.2	–	–	17500 nM	45.6	15400	29	15500 nM	30.4	20500 nM	49.3	23700 nM	74.5	11300 nM	26.1 µM
